Test results from ChEMBL document CHEMBL4177599, “The antitubercular activity of various nitro(triazole/imidazole)-based compounds” (Bioorg Med Chem, 2017).
In brackets after ≈: the same amount, converted by molar mass.

Experiments:
[1] = Protein binding in human plasma at 5 uM after 4 hrs by LC-MS/MS analysis
in vitro [2] = details: human, Caco-2
Description: Efflux ratio of apparent permeability from basolateral to apical over apical to basolateral side in human Caco2 cells monolayer at 10 uM after 2 hrs by LC-MS/MS analysis

[3] = tested on: Mycobacterium tuberculosis; assay: Bactericidal activity against Mycobacterium tuberculosis H37Rv ATCC 27294 assessed as concentration required for 2 log kill after 21 days under aerobic condition by colony forming assay; type: functional; details: for MBC: H37Rv ATCC 27294, 504 h
L6 = assay: Cytotoxicity against rat L6 cells after 2 days by CellTiter-Glo luminescent cell viability assay; type: ADME, cell-based; details: L6, 48 h
THP-1 = assay: Cytotoxicity against human THP1 cells after 3 days by luminescence assay; type: cell-based; details: THP-1, 72 h
HepG2 = assay: Cytotoxicity against human HepG2 cells at 100 uM after 3 days by CellTiter-Glo luminescent cell viability assay; type: cell-based; details: HepG2, 72 h
in vitro [4] = details: human, Caco-2; remark: listed apart in the source
Description: (§1) Apparent permeability of the compound across apical side to basolateral side in human Caco2 cells monolayer at 10 uM after 2 hrs by LC-MS/MS analysis

[5] = Fraction unbound in human plasma at 5 uM after 4 hrs by LC-MS/MS analysis; type: ADME, cell-free
[6] = tested on: Mycobacterium tuberculosis; assay: Antitubercular activity against luxABCDE expressing Mycobacterium tuberculosis H37Rv infected in human THP1 cells measured after 3 days by luminescence assay; type: functional, organism-based; details: THP-1, 72 h
[7] = tested on: Mycobacterium tuberculosis; assay: Antitubercular activity against Mycobacterium tuberculosis H37Rv ATCC 27294 after 10 days under low oxygen condition followed by incubation under aerobic condition for 28 hrs by LORA; type: functional, organism-based
[8] = Half life in human liver S9 microsomes at 1 uM in presence of NADPH by LC-MS/MS analysis
[9] = Half life in human liver S9 microsomes at 1 uM in absence of NADPH by LC-MS/MS analysis
in vitro [10] = details: human, Caco-2; remark: listed apart in the source
Description: Efflux ratio of apparent permeability from basolateral to apical over apical to basolateral side in human Caco2 cells monolayer at 10 uM after 1 hr by LC-MS/MS analysis

in vitro [11] = details: human, THP1 cells
Description: Selectivity index, ratio of IC50 for human THP1 cells to IC50 for Mycobacterium tuberculosis H37Rv under aerobic condition

[12] = Apparent permeability of the compound across apical side to basolateral side in human Caco2 cells monolayer at 10 uM after 1 hr by LC-MS/MS analysis; type: ADME, cell-based; details: Caco-2
[13] = tested on: Mycobacterium tuberculosis; assay: Antitubercular activity against Mycobacterium tuberculosis H37Rv ATCC 27294 after 5 days under aerobic condition; type: functional, organism-based; details: for IC50 / IC90 / MIC: H37Rv ATCC 27294, 120 h
[14] = Intrinsic clearance in human liver S9 microsomes at 1 uM in absence of NADPH by LC-MS/MS analysis; type: ADME, S9 microsome; details: read-out: CLH
in vitro [15] = details: human, Caco-2; remark: listed apart in the source
Description: (§2) Apparent permeability of the compound across basolateral side to apical side in human Caco2 cells monolayer at 10 uM after 2 hrs by LC-MS/MS analysis

[16] = Intrinsic clearance in human liver S9 microsomes at 1 uM in presence of NADPH by LC-MS/MS analysis; type: ADME, S9 microsome; details: read-out: CLH
[17] = Apparent permeability of the compound across basolateral side to apical side in human Caco2 cells monolayer at 10 uM after 1 hr by LC-MS/MS analysis; type: ADME, cell-based; details: Caco-2
[18] = tested on: Mycobacterium tuberculosis; assay: Antitubercular activity against luxABCDE expressing Mycobacterium tuberculosis H37Rv infected in mouse J774 macrophages assessed as log reduction in bacterial colonies at 2.6 uM measured after 4 days under aerobic condition by luminescence assay; type: functional
[19] = tested on: Mycobacterium tuberculosis; assay: Antitubercular activity against luxABCDE expressing Mycobacterium tuberculosis H37Rv infected in mouse J774 macrophages assessed as log reduction in bacterial colonies at 30 uM measured after 4 days under aerobic condition by luminescence assay; type: functional
[20] = tested on: Mycobacterium tuberculosis; assay: Antitubercular activity against luxABCDE expressing Mycobacterium tuberculosis H37Rv infected in mouse J774 macrophages assessed as log reduction in bacterial colonies at 7.2 uM measured after 4 days under aerobic condition by luminescence assay; type: functional
[21] = tested on: Mycobacterium tuberculosis; assay: Potency index, ratio of compound MIC to metronidazole MIC for antitubercular activity against Mycobacterium tuberculosis H37Rv ATCC 27294 under low oxygen condition; type: functional
Vero = assay: Cytotoxicity against African green monkey Vero cells after 2 days by CellTiter-Glo luminescent cell viability assay; type: ADME, cell-based; details: Chlorocebus sabaeus, 48 h
[22] = human, caco-2, 2 h, 10 µM
Description: as §1

[23] = tested on: Mycobacterium tuberculosis; assay: Antitubercular activity against luxABCDE expressing Mycobacterium tuberculosis H37Rv infected in mouse J774 macrophages assessed as log reduction in bacterial colonies at 20 uM measured after 4 days under aerobic condition by luminescence assay; type: functional
[24] = human, caco-2, 2 h, 10 µM; remark: listed apart in the source
Description: as §2

[25] = tested on: Mycobacterium tuberculosis; assay: Potency index, ratio of compound MIC to ethambutol MIC for antitubercular activity against Mycobacterium tuberculosis H37Rv ATCC 27294 under aerobic condition; type: functional
[26] = Solubility of compound in Middlebrook 7H9 broth media at pH 6.4 at 200 uM after 90 mins by UV-VIS spectrophotometric method; type: physicochemical; details: buffer, pH 6.4, 1.5 h
[27] = tested on: Mycobacterium tuberculosis; assay: Antitubercular activity against luxABCDE expressing Mycobacterium tuberculosis H37Rv infected in mouse J774 macrophages assessed as log reduction in bacterial colonies at 10.9 uM measured after 4 days under aerobic condition by luminescence assay; type: functional

Row | SMILES | fraction unbound at 4 h, 5 µM [1] | efflux ratio at 2 h, 10 µM (in vitro [2]) | MBC [3] [µM] | IC50 (L6) [µM] | IC50 (HepG2) [µM] | Papp A→B at 2 h, 10 µM (in vitro [4]) [×10⁻⁶ cm/s] | fraction unbound at 4 h, 5 µM [5] | IC50 [6] [nM] | IC90 [6] [nM] | IC50 [7] [µM] | IC90 [7] [µM] | MIC [7] [µM] | half-life at 1 µM [8] [min] | half-life at 1 µM [9] [min] | efflux ratio at 1 h, 10 µM (in vitro [10]) | IC50 [13] [µM] | IC90 [13] [µM] | MIC [13] [µM] | Papp B→A at 2 h, 10 µM (in vitro [15]) [×10⁻⁶ cm/s] | Papp B→A at 1 h, 10 µM [17] [×10⁻⁶ cm/s] | further results
1 | O=C(CCn1cnc([N+](=O)[O-])n1)Nc1cccc(-c2ccccc2)c1 | 0.042 | 0.39 | 6.8 (≈ 2.29 µg/mL) | 36 | > 100 | 18 | 0.033 | 2300 | 4100 | 7.8 | 44 | > 200 | > 180 | > 180 | 0.79 | 3.6 to 6.1 | 6.8 to 7.1 | 6.8 to 8.4 (≈ 2.29 to 2.83 µg/mL) | 7 | 17.5 | Activity ([3]; TDE = time-dependent effect): Tde; IC50 (THP-1): > 50 µM; selectivity ratio (in vitro [11]): > 10; Papp A→B at 1 h, 10 µM [12]: 22.2 ×10⁻⁶ cm/s; Activity ([13]; TDE = time-dependent effect): Tde; microsomal CLint at 1 µM [14]: < 12.8 µL/min/mg; microsomal CLint at 1 µM [16]: < 12.8 µL/min/mg
2 | NNC(=O)c1ccncc1 [ISONIAZID] |  |  |  |  |  |  |  | 190 | 240 |  |  |  |  |  |  | 0.131 | 0.2 | 0.313 (≈ 0.0429 µg/mL) |  |  | log(activity) [18]: 2.6; log(activity) [19]: 2.7
3 | O=C(NCCCCn1cnc([N+](=O)[O-])n1)c1sc2ccccc2c1Cl |  |  | 7.2 (≈ 2.73 µg/mL) | > 264 |  |  |  |  |  | 35.5 | 61.4 | 21.5 (≈ 8.17 µg/mL) |  |  |  | 4 | 6.4 | 6.1 (≈ 2.32 µg/mL) |  |  | log(activity) [20]: 2.2; Ratio [21]: 6 - 9; IC50 (Vero): > 100 µM
4 | O=C(Cn1cnc([N+](=O)[O-])n1)Nc1nc(-c2ccc(F)c(F)c2)cs1 | 0.002 |  | 20 (≈ 7.33 µg/mL) |  | 78 |  |  |  |  | 8.7 | 39 | > 200 | > 180 | > 180 |  | 27 | 39 | 37 (≈ 13.6 µg/mL) |  |  | Papp [22]: 37.7 ×10⁻⁶ cm/s; log(activity) [23]: 2.4; IC50 (Vero): 55 µM; Papp [24]: 19.9 ×10⁻⁶ cm/s
5 | O=C(CCn1cnc([N+](=O)[O-])n1)Nc1cccc(OCc2ccccc2)c1 | 0.033 | 0.67 | 0.75 (≈ 0.276 µg/mL) | 40 | > 100 | 15.8 | 0.042 | 1300 | 2900 | 9.2 | 41 | > 200 | 124 | > 180 | 0.79 | 1.7 to 3.2 | 2.8 to 3.6 | 3 to 4.1 (≈ 1.1 to 1.51 µg/mL) | 10.5 | 17.6 | Activity [3]: Dose-dependent effect; IC50 (THP-1): > 50 µM; Ratio [25]: 2; selectivity ratio (in vitro [11]): > 10; Papp A→B at 1 h, 10 µM [12]: 22.2 ×10⁻⁶ cm/s; Activity [13]: Dose-dependent effect; microsomal CLint at 1 µM [14]: < 12.8 µL/min/mg; microsomal CLint at 1 µM [16]: 18.7 µL/min/mg
6 | CC(C)NCC(O)COc1cccc2ccccc12 (stereo unspecified) [PROPRANOLOL] | 0.199 | 0.83 to 3.1 |  |  |  | 8.8 to 25.4 | 0.244 |  |  |  |  |  |  |  | 2.5 |  |  |  | 21.1 to 27.3 | 43.3 | 
7 | O=C(NCCCCn1cnc([N+](=O)[O-])n1)c1nc2ccccc2s1 |  |  | 10.9 (≈ 3.78 µg/mL) |  |  |  |  |  |  | 26 | 29.2 | 23.4 (≈ 8.11 µg/mL) |  |  |  | 4.9 | 7.4 | 6.7 (≈ 2.32 µg/mL) |  |  | Ratio [21]: 6 - 9; IC50 (Vero): > 100 µM; solubility [26]: Soluble; log(activity) [27]: 2.4
